Source: ChEMBL document CHEMBL4334443, “Characterization of Covalent Pyrazolopyrimidine-MKK7 Complexes and a Report on a Unique DFG-in/Leu-in Conformation of Mitogen-Activated Protein Kinase Kinase 7 (MKK7)” (J Med Chem, 2019)
pIC50: −log10 of the molar value.

Assay: Inhibition of MKK7 beta1 S273D/T275D double mutant (unknown origin) using JNK1 K55M mutant as substrate by ADP-Glo assay
Parameters: species or system Homo sapiens

| SMILES | pIC50 |
| --- | --- |
| C=CC(=O)N1CCC[C@@H](n2nc(-c3ccc4ccccc4c3)c3c(N)ncnc32)C1 | 6.95 |
| C=CC(=O)N1CCC[C@@H](n2nc(-c3cccc(C(F)(F)F)c3)c3c(N)ncnc32)C1 | 6.80 |
| C=CC(=O)N1CCC[C@@H](n2nc(-c3cnc4[nH]ccc4c3)c3c(N)ncnc32)C1 | 7.72 |
| C=CC(=O)N1CCC[C@@H](n2nc(-c3ccc(C(F)(F)F)cc3)c3c(N)ncnc32)C1 | 6.18 |
| C=CC(=O)N1CCC[C@@H](n2nc(-c3ccc(Oc4ccccc4)cc3)c3c(N)ncnc32)C1 [IBRUTINIB] | 7.11 |
| C=CC(=O)N1CCC[C@@H](n2nc(-c3cn(C)c4ccccc34)c3c(N)ncnc32)C1 | 6.52 |
| C=CC(=O)N1CCC[C@@H](n2ncc3c(N)ncnc32)C1 | 6.20 |
| C=CC(=O)N1CCC[C@@H](n2nc(-c3ccc(F)cc3)c3c(N)ncnc32)C1 | 6.81 |
| C=CC(=O)N1CCC[C@@H](n2nc(C3CC3)c3c(N)ncnc32)C1 | 6.51 |
| C=CC(=O)N1CCC[C@@H](n2nc(C#CC3CCCC3)c3c(N)ncnc32)C1 | 5.80 |
| C=CC(=O)N1CCC[C@@H](n2nc(-c3cccc4ccccc34)c3c(N)ncnc32)C1 | 6.83 |

Now from value to compound:

| pIC50 | SMILES |
| --- | --- |
| 6.38 | C=CC(=O)N1CCC[C@@H](n2nc(-c3ccccc3)c3c(N)ncnc32)C1 |
| 5.58 | CN(C)C/C=C/C(=O)N1CCC[C@@H](n2nc(-c3cccc(C(F)(F)F)c3)c3c(N)ncnc32)C1 |
| < 5.00 | CCC(=O)N1CCC[C@@H](n2nc(-c3ccccc3)c3c(N)ncnc32)C1 |
| < 5.00 | N#C/C(=C\C1CC1)C(=O)N1CCC[C@@H](n2nc(-c3cccc(C(F)(F)F)c3)c3c(N)ncnc32)C1 |
| < 5.00 | CCC(=O)N1CCC[C@@H](n2nc(-c3ccc(F)cc3)c3c(N)ncnc32)C1 |
| < 5.00 | N#C/C(=C\C1CC1)C(=O)N1CCC[C@@H](n2nc(-c3cnc4[nH]ccc4c3)c3c(N)ncnc32)C1 |
| 8.07 | C=CC(=O)N1CCC[C@@H](n2nc(-c3ccc(O)cc3)c3c(N)ncnc32)C1 |
| < 5.00 | CCC(=O)N1CCC[C@@H](n2nc(-c3cccc(C(F)(F)F)c3)c3c(N)ncnc32)C1 |
